As usually defined, the GI50 is the concentration giving 50% growth inhibition. As usually defined, the TGI is the concentration giving total growth inhibition. High values mean less potent growth arrest, low ones more potent growth arrest.

The results in this text go back to PubChem BioAssay (NCI).

Among the test systems are HCT-15 colon; HT29 colon; HOP-62 NSCLC; PC-3 prostate; SNB-19 CNS; SW-620 colon; CAKI-1 renal; SK-MEL-28 melanoma; NCI-H522 lung; OVCAR-8 ovarian.
Holding throughout (experiment): DTP human tumour cell line panel, 48 h

SMILES strings stand for the structures.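 48-hour exposure; five concentrations; linearly interpolated endpoints. GI50: concentration for 50% inhibition of growth. Definition used: TGI = concentration required for complete inhibition of growth.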

As to `CC(C)[P+](c1ccccc1)(c1ccccc1)c1ccccc1`, the GI50 in the assay on HCT-15 colon was greater than 100 µM; with HT29 colon, 5.8 µM; in the assay on HOP-62 NSCLC, 19 µM; in the assay on PC-3 prostate it was 2.42 µM; in the assay with SNB-19 CNS it was 5.54 µM; with SW-620 colon, 6.83 µM. Also, the GI50 in the assay on CAKI-1 renal is 50.7 µM; with SK-MEL-28 melanoma, 21.2 µM; in the assay with NCI-H522 lung, 2.6 µM; with OVCAR-8 ovarian, 4.42 µM. The TGI is greater than 100 µM with HCT-15 colon; greater than 100 µM in the assay with HT29 colon; greater than 100 µM with HOP-62 NSCLC; 34.6 µM with PC-3 prostate; greater than 100 µM with SNB-19 CNS; greater than 100 µM in the assay with SW-620 colon. In addition, the TGI was greater than 100 µM in the assay with CAKI-1 renal, greater than 100 µM in the assay on SK-MEL-28 melanoma, 26.5 µM in the assay with NCI-H522 lung and greater than 100 µM in the assay with OVCAR-8 ovarian.

For `COc1ccc2nc(C)cc(Sc3nc4ccccc4s3)c2c1`, the GI50 in the assay with HCT-15 colon was 0.953 µM; with HT29 colon it was 1.89 µM; with HOP-62 NSCLC, 1.26 µM; in the assay on PC-3 prostate, 0.288 µM; in the assay on SNB-19 CNS, 3.46 µM; with SW-620 colon, 1.51 µM. Moreover, the GI50 in the assay on SK-MEL-28 melanoma was 2.45 µM; in the assay on NCI-H522 lung, 1.31 µM; in the assay on OVCAR-8 ovarian it was 2.66 µM. In addition, the TGI in the assay with HCT-15 colon was found to be 3.73 µM; with HT29 colon, 7.71 µM; in the assay on HOP-62 NSCLC, 6.06 µM; with PC-3 prostate, 3 µM; in the assay on SNB-19 CNS, 28.8 µM; in the assay on SW-620 colon, 2.98 µM. Also, the TGI in the assay with CAKI-1 renal turned out to be 0.626 µM; in the assay on SK-MEL-28 melanoma it was 9.89 µM; in the assay on NCI-H522 lung it was 3.15 µM; with OVCAR-8 ovarian it was 10.9 µM.

Turning to `CC(C)=Cc1cc(C)c2ccc(C)c3c2c1C(C)=C(O)C3=O`, the GI50 in the assay with HCT-15 colon was greater than 100 µM; in the assay with HT29 colon, 28.7 µM; with HOP-62 NSCLC it was 28.4 µM; in the assay with PC-3 prostate, 12.6 µM; with SNB-19 CNS it was 23.1 µM; in the assay with SW-620 colon it was 30 µM. In addition, the GI50 with CAKI-1 renal was 23.8 µM; with SK-MEL-28 melanoma it was 0.933 µM; in the assay with NCI-H522 lung, 19.8 µM; in the assay on OVCAR-8 ovarian, 36.6 µM. For the same molecule, the TGI was greater than 100 µM in the assay on HCT-15 colon; greater than 100 µM with HT29 colon; 61.7 µM in the assay with HOP-62 NSCLC; 37.8 µM in the assay with PC-3 prostate; 75.6 µM in the assay on SNB-19 CNS; greater than 100 µM with SW-620 colon. Moreover, the TGI in the assay on CAKI-1 renal was 65.9 µM; in the assay with SK-MEL-28 melanoma it was greater than 100 µM; in the assay with NCI-H522 lung, 46.4 µM; in the assay with OVCAR-8 ovarian, greater than 100 µM.

`CC(C)=Cc1cc(CCC/C(C)=C/Cc2c(O)cc(C)c(C(=O)O)c2O)co1`: the TGI with HCT-15 colon, with HT29 colon, in the assay on HOP-62 NSCLC, in the assay with PC-3 prostate, with SNB-19 CNS and in the assay on SW-620 colon was greater than 100 µM in each case. Moreover, the TGI with CAKI-1 renal, in the assay on SK-MEL-28 melanoma, with NCI-H522 lung and with OVCAR-8 ovarian was greater than 100 µM throughout.

Take `NC(N)=NC(N)=Nc1ccc(C(=O)O)cc1`: the TGI with HCT-15 colon, with HT29 colon, in the assay on HOP-62 NSCLC, in the assay on PC-3 prostate, in the assay on SNB-19 CNS and in the assay on SW-620 colon was greater than 100 µM throughout. Also, the TGI in the assay on CAKI-1 renal, with SK-MEL-28 melanoma, in the assay with NCI-H522 lung and in the assay with OVCAR-8 ovarian was greater than 100 µM in each case.

Take `O=C1OCC2=C1C(c1cccc(C(F)(F)F)c1)c1cc3c(cc1N2CCO)OCCO3` (centres undefined): the GI50 is 0.967 µM in the assay on HCT-15 colon; 1.09 µM in the assay with HT29 colon; 1.31 µM in the assay on HOP-62 NSCLC; 1.24 µM in the assay on PC-3 prostate; 1.63 µM in the assay on SNB-19 CNS; 1.24 µM in the assay with SW-620 colon. Also, the GI50 in the assay on CAKI-1 renal is 1.15 µM; with SK-MEL-28 melanoma it was 1.71 µM; with NCI-H522 lung it was 0.488 µM; in the assay with OVCAR-8 ovarian, 1.29 µM. In addition, the TGI with HCT-15 colon, in the assay on HT29 colon, with HOP-62 NSCLC, with PC-3 prostate, in the assay with SNB-19 CNS and in the assay on SW-620 colon was greater than 33.3 µM each time. Besides, the TGI with CAKI-1 renal was greater than 33.3 µM; in the assay on SK-MEL-28 melanoma it was greater than 33.3 µM; with NCI-H522 lung, 2.89 µM; with OVCAR-8 ovarian, greater than 33.3 µM.

Turning to `COc1ccc(C2NN=C3c4ccccc4CCC32)cc1` (centres undefined), the GI50 is 3.7 µM in the assay on HCT-15 colon; 2.26 µM with HT29 colon; 95.3 µM in the assay with HOP-62 NSCLC; 15.8 µM with PC-3 prostate; 14.5 µM in the assay on SNB-19 CNS; 9.19 µM with SW-620 colon. Besides, the GI50 in the assay on CAKI-1 renal was 9.38 µM; in the assay with SK-MEL-28 melanoma, 8.26 µM; in the assay with NCI-H522 lung it was 3.21 µM; with OVCAR-8 ovarian, 22.1 µM. Besides, the TGI in the assay on HCT-15 colon was greater than 100 µM; in the assay on HT29 colon, 12.5 µM; in the assay on HOP-62 NSCLC, greater than 100 µM; in the assay with PC-3 prostate, greater than 100 µM; in the assay on SNB-19 CNS, greater than 100 µM; with SW-620 colon, greater than 100 µM. Further, the TGI was 21.4 µM in the assay with CAKI-1 renal, 76.1 µM in the assay on SK-MEL-28 melanoma, 17.7 µM with NCI-H522 lung and greater than 100 µM in the assay on OVCAR-8 ovarian.

Turning to `C=C(C(=O)OC)[C@@H]1CC2OC1C(=O)C(C)CCC/C(C)=C/CC[C@@]2(C)O` (some centres undefined), the GI50 in the assay with HCT-15 colon was 29.1 µM; with HT29 colon, 36.5 µM; with HOP-62 NSCLC, 20.6 µM; in the assay with PC-3 prostate, 36.8 µM; in the assay with SNB-19 CNS it was greater than 100 µM; with SW-620 colon, 15 µM. Besides, the GI50 is 11.4 µM in the assay with CAKI-1 renal, 25.5 µM in the assay on SK-MEL-28 melanoma, 19.1 µM with NCI-H522 lung and 28.1 µM in the assay with OVCAR-8 ovarian. Besides, the TGI in the assay on HCT-15 colon is greater than 100 µM; in the assay on HT29 colon, greater than 100 µM; in the assay on HOP-62 NSCLC, 41.2 µM; in the assay with PC-3 prostate, greater than 100 µM; in the assay with SNB-19 CNS, greater than 100 µM; with SW-620 colon it was 30.1 µM. The TGI in the assay on CAKI-1 renal worked out at 27.6 µM; in the assay with SK-MEL-28 melanoma it was 77.3 µM; in the assay on NCI-H522 lung, 48.4 µM; in the assay with OVCAR-8 ovarian it was 93.6 µM.
